Earlier results as cited in patent publication US20260335223A1, “Topical Copolymer Formulations for Hydrophobic Drug Delivery” (1376683 B.C. LTD, priority 2023, published 2026).

How the values were obtained:
[1] = background statement; cited from earlier work
[2] = diblock copolymer micelles, background; cited from earlier work

For `CC[C@@]1(O)C(=O)OCc2c1cc1n(c2=O)Cc2cc3ccccc3nc2-1` [camptothecin], the Water solubility [1] is given as 1 µg/mL and the “Formation of drug-loaded micelles” value [2] is given as “do not form drug-loaded micelles”.
